Assay results: ChEMBL document CHEMBL5303768, “Data for DCP probe TP-060” (2023)
Active and inactive are the calls of the source. The calls are words filed in the database; no cut-off is given here.

How the values were obtained:
[1] = biological target: Acetylcholinesterase (Homo sapiens, UniProt P22303); assay: (§1) Safety47 Scan (DiscoverX - Eurofins)
[2] = biological target: 5-hydroxytryptamine receptor 1B (Homo sapiens, UniProt P28222); assay: as §1
[3] = biological target: Sodium channel protein type 5 subunit alpha (Homo sapiens, UniProt Q14524); assay: as §1
[4] = biological target: Voltage-gated inwardly rectifying potassium channel KCNH2 (Homo sapiens, UniProt Q12809); assay: as §1
[5] = biological target: Vascular endothelial growth factor receptor 2 (Homo sapiens, UniProt P35968); assay: as §1
[6] = biological target: Muscarinic acetylcholine receptor M3 (Homo sapiens, UniProt P20309); assay: as §1
[7] = biological target: 5-hydroxytryptamine receptor 2B (Homo sapiens, UniProt P41595); assay: as §1
[8] = biological target: Muscarinic acetylcholine receptor M1 (Homo sapiens, UniProt P11229); assay: as §1
[9] = biological target: Cannabinoid receptor 1 (Homo sapiens, UniProt P21554); assay: as §1
[10] = biological target: Histamine H1 receptor (Homo sapiens, UniProt P35367); assay: as §1
[11] = biological target: Insulin receptor (Homo sapiens, UniProt P06213); assay: as §1
[12] = biological target: Adenosine receptor A2a (Homo sapiens, UniProt P29274); assay: as §1
[13] = biological target: D(2) dopamine receptor (Homo sapiens, UniProt P14416); assay: as §1
[14] = biological target: Mu-type opioid receptor (Homo sapiens, UniProt P35372); assay: as §1
[15] = biological target: Sodium-dependent dopamine transporter (Homo sapiens, UniProt Q01959); assay: as §1
[16] = biological target: 3',5'-cyclic-AMP phosphodiesterase 4D (Homo sapiens, UniProt Q08499); assay: as §1
[17] = biological target: cGMP-inhibited 3',5'-cyclic phosphodiesterase 3A (Homo sapiens, UniProt Q14432); assay: as §1
[18] = biological target: Alpha-2A adrenergic receptor (Homo sapiens, UniProt P08913); assay: as §1
[19] = biological target: Cannabinoid receptor 2 (Homo sapiens, UniProt P34972); assay: as §1
[20] = biological target: Kappa-type opioid receptor (Homo sapiens, UniProt P41145); assay: as §1
[21] = biological target: 5-hydroxytryptamine receptor 1A (Homo sapiens, UniProt P08908); assay: as §1
[22] = biological target: Alpha-1A adrenergic receptor (Homo sapiens, UniProt P35348); assay: as §1
[23] = biological target: Amine oxidase [flavin-containing] A (Rattus norvegicus, UniProt P21396); assay: as §1
[24] = biological target: Sodium-dependent noradrenaline transporter (Homo sapiens, UniProt P23975); assay: as §1
[25] = biological target: Endothelin-1 receptor (Homo sapiens, UniProt P25101); assay: as §1
[26] = biological target: D(1A) dopamine receptor (Homo sapiens, UniProt P21728); assay: as §1
[27] = biological target: Delta-type opioid receptor (Homo sapiens, UniProt P41143); assay: as §1
[28] = biological target: Beta-2 adrenergic receptor (Homo sapiens, UniProt P07550); assay: as §1
[29] = biological target: 5-hydroxytryptamine receptor 3A (Homo sapiens, UniProt P46098); assay: as §1
[30] = biological target: Histamine H2 receptor (Homo sapiens, UniProt P25021); assay: as §1
[31] = biological target: Rho-associated protein kinase 1 (Homo sapiens, UniProt Q13464); assay: as §1
[32] = biological target: Tyrosine-protein kinase Lck (Homo sapiens, UniProt P06239); assay: as §1
[33] = biological target: Prostaglandin G/H synthase 2 (Homo sapiens, UniProt P35354); assay: as §1
[34] = biological target: Cholecystokinin receptor type A (Homo sapiens, UniProt P32238); assay: as §1
[35] = biological target: Beta-1 adrenergic receptor (Homo sapiens, UniProt P08588); assay: as §1
[36] = biological target: Muscarinic acetylcholine receptor M2 (Homo sapiens, UniProt P08172); assay: as §1
[37] = biological target: Prostaglandin G/H synthase 1 (Homo sapiens, UniProt P23219); assay: as §1
[38] = biological target: Androgen receptor (Homo sapiens, UniProt P10275); assay: as §1
[39] = biological target: 5-hydroxytryptamine receptor 2A (Homo sapiens, UniProt P28223); assay: as §1
[40] = biological target: Glucocorticoid receptor (Homo sapiens, UniProt P04150); assay: as §1
[41] = biological target: Vasopressin V1a receptor (Homo sapiens, UniProt P37288); assay: as §1
[42] = biological target: Glutamate NMDA receptor; GRIN1/GRIN2B (Homo sapiens, UniProt Q05586+Q13224); assay: as §1; assay type: protein-complex assay, Rattus norvegicus; settings: target entry is the homologue from another species
[43] = biological target: Voltage-dependent L-type calcium channel subunit alpha-1C (Homo sapiens, UniProt Q13936); assay: as §1; set-up: species or system Rattus norvegicus; settings: target entry is the homologue from another species
[44] = as §1; set-up: species or system Rattus norvegicus
[45] = biological target: T1, Ceramide glucosyltransferase (Homo sapiens, UniProt Q16739); assay: Cellular GlcCer reduction; assay type: functional, tissue-based, fibroblast
T1 sequence (Q16739 whole entry): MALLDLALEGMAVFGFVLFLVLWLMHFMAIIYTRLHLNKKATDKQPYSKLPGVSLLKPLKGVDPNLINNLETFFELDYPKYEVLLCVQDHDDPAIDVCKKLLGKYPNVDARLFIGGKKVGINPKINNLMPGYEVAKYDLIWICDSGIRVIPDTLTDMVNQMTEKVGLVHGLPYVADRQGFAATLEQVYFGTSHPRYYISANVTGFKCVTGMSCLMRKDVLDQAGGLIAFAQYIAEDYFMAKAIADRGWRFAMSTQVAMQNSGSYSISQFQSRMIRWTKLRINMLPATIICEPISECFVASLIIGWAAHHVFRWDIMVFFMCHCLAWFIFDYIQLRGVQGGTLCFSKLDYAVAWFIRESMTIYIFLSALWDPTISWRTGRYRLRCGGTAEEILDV

[46] = biological target: Neuronal acetylcholine receptor; alpha4/beta2 (Homo sapiens, UniProt P17787+P43681); assay: as §1; assay type: protein-complex assay
[47] = biological target: Voltage-gated potassium channel, IKs; KCNQ1(Kv7.1)/KCNE1(MinK) (Homo sapiens, UniProt P15382+P51787); assay: as §1; assay type: protein-complex assay
[48] = biological target: Ceramide glucosyltransferase (Mus musculus, UniProt O88693); assay: Mouse GCS enzymatic assay; assay type: functional
[49] = biological target: T1, Ceramide glucosyltransferase; assay: Human GCS enzymatic assay; assay type: functional

Histamine H1 receptor, sequence (P35367 whole entry): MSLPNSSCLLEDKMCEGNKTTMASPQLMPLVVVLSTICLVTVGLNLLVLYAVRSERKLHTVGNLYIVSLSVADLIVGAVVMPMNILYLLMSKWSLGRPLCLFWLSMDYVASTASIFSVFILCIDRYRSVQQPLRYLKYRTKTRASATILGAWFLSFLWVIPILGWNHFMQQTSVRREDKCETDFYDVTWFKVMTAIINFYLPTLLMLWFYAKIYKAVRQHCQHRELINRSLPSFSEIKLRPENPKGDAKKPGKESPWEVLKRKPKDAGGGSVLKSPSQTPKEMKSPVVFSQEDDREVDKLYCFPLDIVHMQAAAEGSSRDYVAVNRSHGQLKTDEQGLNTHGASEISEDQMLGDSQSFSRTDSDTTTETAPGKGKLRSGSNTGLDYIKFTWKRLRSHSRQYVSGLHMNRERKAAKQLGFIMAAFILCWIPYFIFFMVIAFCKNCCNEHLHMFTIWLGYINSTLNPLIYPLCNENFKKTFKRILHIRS
Muscarinic acetylcholine receptor M1, sequence (P11229 whole entry): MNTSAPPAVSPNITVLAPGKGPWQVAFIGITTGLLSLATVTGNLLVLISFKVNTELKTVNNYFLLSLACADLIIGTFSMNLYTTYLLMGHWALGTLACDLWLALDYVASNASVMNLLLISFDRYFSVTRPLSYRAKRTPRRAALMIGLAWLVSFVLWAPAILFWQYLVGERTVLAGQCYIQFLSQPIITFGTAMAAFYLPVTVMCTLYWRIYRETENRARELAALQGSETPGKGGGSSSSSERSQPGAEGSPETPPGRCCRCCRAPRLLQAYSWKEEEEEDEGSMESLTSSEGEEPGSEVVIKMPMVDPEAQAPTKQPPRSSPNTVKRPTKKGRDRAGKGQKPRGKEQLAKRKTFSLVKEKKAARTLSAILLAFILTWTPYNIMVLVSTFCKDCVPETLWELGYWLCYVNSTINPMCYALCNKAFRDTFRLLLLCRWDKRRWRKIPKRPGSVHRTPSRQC
Adenosine receptor A2a, sequence (P29274 whole entry): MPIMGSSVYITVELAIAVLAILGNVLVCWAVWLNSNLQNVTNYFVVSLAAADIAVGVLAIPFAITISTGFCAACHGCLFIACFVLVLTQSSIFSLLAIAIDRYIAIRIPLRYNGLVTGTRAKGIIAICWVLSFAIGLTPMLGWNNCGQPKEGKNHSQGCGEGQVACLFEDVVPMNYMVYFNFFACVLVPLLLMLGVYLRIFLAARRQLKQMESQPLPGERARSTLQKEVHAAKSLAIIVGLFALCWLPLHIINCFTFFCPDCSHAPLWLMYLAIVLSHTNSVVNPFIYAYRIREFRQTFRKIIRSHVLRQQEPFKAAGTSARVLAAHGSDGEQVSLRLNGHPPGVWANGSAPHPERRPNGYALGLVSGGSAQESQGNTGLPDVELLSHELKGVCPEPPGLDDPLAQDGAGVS
Endothelin-1 receptor, sequence (P25101 whole entry): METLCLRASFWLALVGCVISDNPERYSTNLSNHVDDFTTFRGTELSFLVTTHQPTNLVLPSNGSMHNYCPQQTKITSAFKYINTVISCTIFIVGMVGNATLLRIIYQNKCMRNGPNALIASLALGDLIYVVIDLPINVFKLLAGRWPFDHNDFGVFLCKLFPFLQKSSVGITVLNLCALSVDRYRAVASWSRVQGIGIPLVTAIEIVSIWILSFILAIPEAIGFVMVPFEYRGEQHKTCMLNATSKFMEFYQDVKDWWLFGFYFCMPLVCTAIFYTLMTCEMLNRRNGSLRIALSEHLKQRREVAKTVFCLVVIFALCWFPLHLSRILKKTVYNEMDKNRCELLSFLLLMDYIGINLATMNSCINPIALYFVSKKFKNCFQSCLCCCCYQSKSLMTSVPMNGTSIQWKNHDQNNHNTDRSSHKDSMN
Voltage-gated potassium channel, IKs; KCNQ1(Kv7.1)/KCNE1(MinK), sequence (P51787 whole entry): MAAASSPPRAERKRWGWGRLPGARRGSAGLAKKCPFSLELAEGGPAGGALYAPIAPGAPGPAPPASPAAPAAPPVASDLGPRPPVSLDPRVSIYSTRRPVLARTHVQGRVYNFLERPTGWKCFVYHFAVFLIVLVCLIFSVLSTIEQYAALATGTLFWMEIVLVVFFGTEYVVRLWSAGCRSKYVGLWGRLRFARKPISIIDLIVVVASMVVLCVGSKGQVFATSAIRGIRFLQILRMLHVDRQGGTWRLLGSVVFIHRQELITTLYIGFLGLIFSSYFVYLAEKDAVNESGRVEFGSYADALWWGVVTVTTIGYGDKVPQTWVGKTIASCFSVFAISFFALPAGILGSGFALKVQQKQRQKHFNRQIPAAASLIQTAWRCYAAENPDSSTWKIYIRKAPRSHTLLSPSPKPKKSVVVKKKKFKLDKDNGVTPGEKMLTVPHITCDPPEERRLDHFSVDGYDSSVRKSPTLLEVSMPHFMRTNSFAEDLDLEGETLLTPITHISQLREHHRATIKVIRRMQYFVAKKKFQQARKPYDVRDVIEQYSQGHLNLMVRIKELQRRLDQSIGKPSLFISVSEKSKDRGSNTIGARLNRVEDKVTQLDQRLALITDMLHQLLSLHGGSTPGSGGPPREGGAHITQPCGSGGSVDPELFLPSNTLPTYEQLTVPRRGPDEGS
Beta-1 adrenergic receptor, sequence (P08588 whole entry): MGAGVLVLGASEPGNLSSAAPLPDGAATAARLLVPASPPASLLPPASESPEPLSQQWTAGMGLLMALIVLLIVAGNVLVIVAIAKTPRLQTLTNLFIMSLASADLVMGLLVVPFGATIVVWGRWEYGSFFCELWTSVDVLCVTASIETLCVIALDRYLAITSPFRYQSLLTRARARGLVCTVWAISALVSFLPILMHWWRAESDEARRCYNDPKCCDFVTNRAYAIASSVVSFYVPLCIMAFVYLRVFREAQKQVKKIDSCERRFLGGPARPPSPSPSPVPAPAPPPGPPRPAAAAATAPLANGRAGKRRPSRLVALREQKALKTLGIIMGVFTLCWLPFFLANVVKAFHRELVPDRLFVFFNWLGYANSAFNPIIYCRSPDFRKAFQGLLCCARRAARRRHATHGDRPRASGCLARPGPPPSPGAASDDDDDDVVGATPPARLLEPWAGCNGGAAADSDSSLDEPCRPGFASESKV
Cannabinoid receptor 2, sequence (P34972 whole entry): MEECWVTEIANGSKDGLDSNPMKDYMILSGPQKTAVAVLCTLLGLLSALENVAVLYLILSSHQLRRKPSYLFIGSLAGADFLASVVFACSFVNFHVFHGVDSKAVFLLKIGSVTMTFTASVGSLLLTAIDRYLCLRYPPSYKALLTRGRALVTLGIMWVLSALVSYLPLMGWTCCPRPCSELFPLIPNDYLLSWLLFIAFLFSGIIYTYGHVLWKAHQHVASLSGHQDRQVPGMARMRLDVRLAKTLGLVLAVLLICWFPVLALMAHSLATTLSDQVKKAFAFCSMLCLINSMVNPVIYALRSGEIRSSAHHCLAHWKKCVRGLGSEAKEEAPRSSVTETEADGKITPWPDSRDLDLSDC
D(1A) dopamine receptor, sequence (P21728 whole entry): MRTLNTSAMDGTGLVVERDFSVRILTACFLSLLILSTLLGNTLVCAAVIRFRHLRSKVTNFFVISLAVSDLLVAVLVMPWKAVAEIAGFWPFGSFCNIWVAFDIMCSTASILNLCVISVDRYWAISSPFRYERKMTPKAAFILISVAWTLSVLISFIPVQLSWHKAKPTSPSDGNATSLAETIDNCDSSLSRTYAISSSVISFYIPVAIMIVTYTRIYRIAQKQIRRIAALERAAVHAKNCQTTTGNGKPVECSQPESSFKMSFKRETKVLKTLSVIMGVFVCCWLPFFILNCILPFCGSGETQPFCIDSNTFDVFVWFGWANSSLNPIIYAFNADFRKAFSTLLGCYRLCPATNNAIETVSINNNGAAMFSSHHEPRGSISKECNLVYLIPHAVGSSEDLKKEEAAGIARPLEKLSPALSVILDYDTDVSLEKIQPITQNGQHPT
5-hydroxytryptamine receptor 2A, sequence (P28223 whole entry): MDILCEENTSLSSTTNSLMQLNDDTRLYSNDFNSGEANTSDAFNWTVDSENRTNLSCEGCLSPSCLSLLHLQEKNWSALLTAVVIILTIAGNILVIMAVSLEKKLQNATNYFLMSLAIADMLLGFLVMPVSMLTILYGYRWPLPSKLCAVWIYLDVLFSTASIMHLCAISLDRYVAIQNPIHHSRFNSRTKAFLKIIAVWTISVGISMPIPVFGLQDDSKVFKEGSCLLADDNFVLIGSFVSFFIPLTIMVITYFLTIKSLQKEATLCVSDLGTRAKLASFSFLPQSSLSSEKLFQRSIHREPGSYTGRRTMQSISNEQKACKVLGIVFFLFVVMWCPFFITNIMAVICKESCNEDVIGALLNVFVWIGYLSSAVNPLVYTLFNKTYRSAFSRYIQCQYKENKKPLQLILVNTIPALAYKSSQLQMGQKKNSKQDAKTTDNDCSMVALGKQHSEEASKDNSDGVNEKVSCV
Muscarinic acetylcholine receptor M2, sequence (P08172 whole entry): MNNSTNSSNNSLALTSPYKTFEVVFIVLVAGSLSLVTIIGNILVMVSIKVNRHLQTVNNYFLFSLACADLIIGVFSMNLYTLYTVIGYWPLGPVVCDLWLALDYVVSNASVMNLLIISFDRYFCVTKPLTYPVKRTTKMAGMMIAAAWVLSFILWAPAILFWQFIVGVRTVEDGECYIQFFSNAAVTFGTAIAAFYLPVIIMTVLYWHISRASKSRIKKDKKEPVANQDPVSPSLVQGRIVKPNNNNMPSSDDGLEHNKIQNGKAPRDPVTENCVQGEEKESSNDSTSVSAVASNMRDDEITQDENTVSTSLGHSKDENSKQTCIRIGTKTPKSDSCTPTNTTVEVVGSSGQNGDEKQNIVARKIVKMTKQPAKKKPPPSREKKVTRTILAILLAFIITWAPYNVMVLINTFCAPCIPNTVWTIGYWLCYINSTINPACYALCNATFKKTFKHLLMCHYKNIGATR

Q: With CC(C)(O)c1ccc(N2Cc3c(ccnc3-c3ccc(F)cc3OCC(F)(F)F)C2=O)cc1 as the compound, how does the IC50 [1] read?
A: > 10 µM

Q: What about the EC50 [2] of the same compound?
A: 2.8 µM

Q: What about the IC50 [2] of the same compound?
A: > 10 µM

Q: What about the IC50 [3] of the same compound?
A: > 10 µM

Q: What about the IC50 [4] of the same compound?
A: > 10 µM

Q: And the IC50 [5]?
A: > 10 µM

Q: And the EC50 [6]?
A: > 10 µM

Q: And the IC50 [6]?
A: > 10 µM

Q: And the EC50 [7]?
A: > 10 µM

Q: And the IC50 [7]?
A: > 10 µM

Q: What about the EC50 [8] of the same compound?
A: > 10 µM

Q: And the IC50 [8]?
A: > 10 µM

Q: And the EC50 [9]?
A: > 10 µM

Q: What about the IC50 [9] of the same compound?
A: > 10 µM

Q: What about the EC50 [10] of the same compound?
A: > 10 µM

Q: What about the IC50 [10] of the same compound?
A: > 10 µM

Q: What about the IC50 [11] of the same compound?
A: > 10 µM

Q: What about the EC50 [12] of the same compound?
A: > 10 µM

Q: What about the IC50 [12] of the same compound?
A: > 10 µM

Q: What about the EC50 [13] of the same compound?
A: > 10 µM

Q: And the IC50 [13]?
A: > 10 µM

Q: What about the EC50 [14] of the same compound?
A: > 10 µM

Q: What about the IC50 [14] of the same compound?
A: > 10 µM

Q: What about the IC50 [15] of the same compound?
A: > 10 µM

Q: And the IC50 [16]?
A: > 10 µM

Q: And the IC50 [17]?
A: > 10 µM

Q: And the EC50 [18]?
A: > 10 µM

Q: What about the IC50 [18] of the same compound?
A: > 10 µM

Q: What about the EC50 [19] of the same compound?
A: > 10 µM

Q: And the IC50 [19]?
A: > 10 µM

Q: What about the EC50 [20] of the same compound?
A: > 10 µM

Q: What about the IC50 [20] of the same compound?
A: > 10 µM

Q: And the EC50 [21]?
A: > 10 µM

Q: What about the IC50 [21] of the same compound?
A: > 10 µM

Q: What about the EC50 [22] of the same compound?
A: > 10 µM

Q: And the IC50 [22]?
A: > 10 µM

Q: And the IC50 [23]?
A: > 10 µM

Q: What about the IC50 [24] of the same compound?
A: > 10 µM

Q: And the EC50 [25]?
A: > 10 µM

Q: And the IC50 [25]?
A: > 10 µM

Q: And the EC50 [26]?
A: > 10 µM

Q: What about the IC50 [26] of the same compound?
A: > 10 µM

Q: What about the EC50 [27] of the same compound?
A: > 10 µM

Q: And the IC50 [27]?
A: > 10 µM

Q: What about the EC50 [28] of the same compound?
A: > 10 µM

Q: What about the IC50 [28] of the same compound?
A: > 10 µM

Q: What about the EC50 [29] of the same compound?
A: > 10 µM

Q: And the IC50 [29]?
A: > 10 µM

Q: And the EC50 [30]?
A: > 10 µM

Q: And the IC50 [30]?
A: > 10 µM

Q: And the IC50 [31]?
A: > 10 µM

Q: What about the IC50 [32] of the same compound?
A: > 10 µM

Q: What about the IC50 [33] of the same compound?
A: > 10 µM

Q: What about the EC50 [34] of the same compound?
A: > 10 µM

Q: And the IC50 [34]?
A: > 10 µM

Q: And the EC50 [35]?
A: > 10 µM

Q: What about the IC50 [35] of the same compound?
A: > 10 µM

Q: And the EC50 [36]?
A: > 10 µM

Q: And the IC50 [36]?
A: > 10 µM

Q: And the IC50 [37]?
A: > 10 µM

Q: And the EC50 [38]?
A: > 10 µM

Q: And the IC50 [38]?
A: > 10 µM

Q: And the EC50 [39]?
A: > 10 µM

Q: What about the IC50 [39] of the same compound?
A: > 10 µM

Q: And the EC50 [40]?
A: > 10 µM

Q: What about the IC50 [40] of the same compound?
A: > 10 µM

Q: And the EC50 [41]?
A: > 10 µM

Q: And the IC50 [41]?
A: > 10 µM

Q: And the EC50 [42]?
A: > 10 µM

Q: And the IC50 [42]?
A: > 10 µM

Q: And the IC50 [43]?
A: > 10 µM

Q: What about the EC50 [44] of the same compound?
A: > 10 µM

Q: And the IC50 [44]?
A: > 10 µM

Q: What about the EC50 [45] of the same compound?
A: 0.0076 µM (active)

Q: What about the EC50 [46] of the same compound?
A: > 10 µM

Q: What about the IC50 [46] of the same compound?
A: 6.5 µM

Q: And the EC50 [47]?
A: > 10 µM

Q: What about the IC50 [47] of the same compound?
A: > 10 µM

Q: What does the source list for COc1cccc(-c2nccc3c2CN(c2ccccc2)C3=O)c1?
A: IC50 [48]: > 100 µM (not active); IC50 [49]: > 100 µM (not active); EC50 [45]: > 10 µM (not active)
